Data reported in ChEMBL document CHEMBL1143312, “Design, synthesis, and evaluation in vitro of quinoline-8-carboxamides, a new class of poly(adenosine-diphosphate-ribose)polymerase-1 (PARP-1) inhibitor” (J Med Chem, 2009).

Molecular target: Poly [ADP-ribose] polymerase 1 (Homo sapiens, UniProt P09874)
Test: Inhibition of human recombinant PARP1 by Trevigen colorimetric assay

Chain of Poly [ADP-ribose] polymerase 1 (P09874 whole entry): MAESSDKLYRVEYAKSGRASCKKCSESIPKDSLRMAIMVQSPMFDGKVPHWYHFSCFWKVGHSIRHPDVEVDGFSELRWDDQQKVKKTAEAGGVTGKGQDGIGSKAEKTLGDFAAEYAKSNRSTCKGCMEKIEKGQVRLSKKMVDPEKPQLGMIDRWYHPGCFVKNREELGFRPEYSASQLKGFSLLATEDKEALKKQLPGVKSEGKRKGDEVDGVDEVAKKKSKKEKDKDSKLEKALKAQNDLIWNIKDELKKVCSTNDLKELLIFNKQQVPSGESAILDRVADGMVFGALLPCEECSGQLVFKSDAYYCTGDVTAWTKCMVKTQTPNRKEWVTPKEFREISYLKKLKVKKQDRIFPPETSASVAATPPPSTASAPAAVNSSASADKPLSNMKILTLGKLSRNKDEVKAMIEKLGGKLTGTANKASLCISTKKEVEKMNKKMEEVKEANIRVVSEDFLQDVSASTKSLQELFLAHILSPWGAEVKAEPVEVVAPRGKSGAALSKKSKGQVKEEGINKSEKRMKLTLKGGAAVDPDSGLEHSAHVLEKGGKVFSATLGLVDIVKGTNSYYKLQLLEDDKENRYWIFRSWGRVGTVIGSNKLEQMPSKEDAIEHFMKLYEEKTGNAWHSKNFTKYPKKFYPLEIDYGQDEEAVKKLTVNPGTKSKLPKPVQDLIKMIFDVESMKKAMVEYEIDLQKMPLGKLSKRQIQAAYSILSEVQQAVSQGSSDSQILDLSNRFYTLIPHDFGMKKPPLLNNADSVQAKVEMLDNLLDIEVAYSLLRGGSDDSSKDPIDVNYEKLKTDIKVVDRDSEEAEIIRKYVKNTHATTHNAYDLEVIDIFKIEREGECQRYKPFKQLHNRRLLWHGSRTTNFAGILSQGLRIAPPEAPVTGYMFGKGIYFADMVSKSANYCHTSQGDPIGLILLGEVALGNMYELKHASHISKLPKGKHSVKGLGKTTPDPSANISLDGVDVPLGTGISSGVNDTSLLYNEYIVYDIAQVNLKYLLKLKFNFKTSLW

## Nc1cccc2c(=O)[nH]ccc12
  IC50: 1800 nM
